Reference: PubChem BioAssay AID1199 (EPA DSSTox, 2008)
The source made the active and inactive calls.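 The calls were made as follows: active = a tumour-causing dose and a tumour site recorded for mice in at least one sex group; inconclusive = only government mouse studies exist and were judged inadequate; inactive = mouse studies exist but none gave tumours.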

System: mouse carcinogenicity bioassay, TD50 from CPDB
Experiment: DSSTox (CPDBAS) Carcinogenic Potency Database Summary Mouse Bioassay Results
In short: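 Chronic long-term mouse cancer bioassays from literature and NCI/NTP, compiled per sex. TD50 is the standardized carcinogenic potency, using the most positive experiment per sex-species; target sites follow author opinion.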

[1] = TD50_Mouse_Note: no positive results, TargetSites_Mouse_Female: no positive results

CC(=O)OC[C@]12C[C@H](OC(=O)CC(C)C)C(C)=C[C@H]1O[C@@H]1[C@H](O)[C@@H](OC(C)=O)[C@@]2(C)C12CO2 (stereo partly drawn)
Potency (TargetSites_Mouse_Female: no positive results): 0.00189 mmol/kg/day

O=S(=O)(O)c1ccc(N=Nc2c(O)ccc3cc(S(=O)(=O)O)ccc23)cc1
outcome [1]: inactive; no positive results

CC/C=C(/CC)[N+](=O)[O-]
Potency (TargetSites_Mouse_BothSexes: lung): 0.00268 mmol/kg/day

CCN(Cc1cccc(S(=O)(=O)O)c1)c1ccc(C(=C2C=CC(=[N+](CC)Cc3cccc(S(=O)(=O)O)c3)C=C2)c2ccccc2S(=O)(=O)[O-])cc1
outcome [1]: inactive; no positive results

CC(O)CCl (stereo not drawn)
outcome [1]: inactive; no positive results

Nc1cc([N+](=O)[O-])ccc1C(=O)O
outcome [1]: inactive; no positive results

CC(C)(c1ccc(O)cc1)c1ccc(O)cc1
outcome [1]: inactive; no positive results

CC(C)(CCCOc1ccc(OCCCC(C)(C)C(=O)O)c(-c2ccccc2)c1)C(=O)O
Potency (TD50_Mouse_Note: TD50 is harmonic mean of more than one positive test, TargetSites_Mouse_Female: liver): 0.125 mmol/kg/day

O=C1c2ccccc2C(=O)c2ccccc21
outcome [1]: inactive; no positive results

CC(C)CCCCCCOC(=O)c1ccccc1C(=O)OCCCCCCC(C)C
outcome (TD50_Mouse_Note: TD50 is harmonic mean of more than one positive test, TD50_Mouse_mmol was not calculated for this mixture, but Activiity, TargetSites_Mouse_Female: liver): active; liver

[CH3][Hg][Cl]
Potency (TD50_Mouse_Note: TD50 is harmonic mean of more than one positive test, TargetSites_Mouse_Female: no positive results): 0.00578 mmol/kg/day

CCSCCC(N)C(=O)O (stereo not drawn)
Potency (TD50_Mouse_Note: TD50 is harmonic mean of more than one positive test, greater than ten-fold variation among TD50 values for positive res, TargetSites_Mouse_Female: liver): 0.437 mmol/kg/day

CNNC
Potency (TD50_Mouse_Note: TD50 is harmonic mean of more than one positive test, harmonic mean of TD50 includes a value for upper 99% confidence li, TargetSites_Mouse_Female: lung, vascular system): 0.000857 mmol/kg/day
